The results in this text go back to US20150087045A1, “CRYSTAL STRUCTURE OF HCV […] AND METHODS OF USE” (GILEAD P[…], priority 2012, published 2015).

Values joined by “and” are separate entries in the source; they are usually repeats but may differ in a detail not shown here. Equal values may be shown once. Some results are limits rather than exact numbers.

For series [1], the target named is T1, HCV NS5B polymerase 1b WT (Hepatitis C virus genotype 1b, UniProt P26663, E2505Q/E2506Q/K2533R/L2466Q/R2963Q).
T1 construct: 1b WT; made in house; host or cells: E. coli Rosetta DE3
Put plainly: Inhibition assay (chain termination) with construct 1b WT. Type of series: biochemical, hepatitis C virus genotype 1b BK isolate. To be noted: one value or range given for both 1b WT and 1b Δ8. The method, then:
For constructs 1bWT and 1bΔ8, inhibition assays were performed in a 120 μL mixture containing 5 μM of the four natural ribonucleotides, [α-^32P]UTP, 20 ng/μL of genotype 1b (−) IRES RNA template, 1 unit/μL of SUPERase.In (Ambion, Austin, Tex.), 40 ng/μL of NS5B, 5 mM MgCl2, and 2 mM DTT in 50 mM HEPES buffer (pH 7.5). The reaction was incubated at 27° C. and a 20 μL aliquot was taken at 0, 30, 60, 90, and 120 minute time points and quenched by mixing with 80 μL of stop solution (12.5 mM EDTA, 2.25 M NaCl, and 225 mM sodium citrate). The radioactive RNA products were separated from unreacted substrates using a Hybond N+ membrane (GE Healthcare) as described previously (FIG. 2). The products were visualized and quantified using a phosphorimager. The reaction rates and IC 50 values were calculated using GraphFit.

Series [2] deals with T2, HCV NS5B polymerase 1b Δ8 (Hepatitis C virus genotype 1b, UniProt P26663, DEL2863-2870/E2505Q/E2506Q/K2533R/L2466Q/R2963Q/S2872G/Y2871G).
T2 construct: 1bΔ8; made in house; host or cells: E. coli Rosetta DE3
The experiment in a line: Inhibition assay (chain termination) with construct 1b Δ8. Type of series: biochemical, hepatitis C virus genotype 1b BK isolate. Conditions: for IC50: one value or range given for both 1b WT and 1b Δ8.

For series [3], the target named is T3, HCV polymerase 1b S282T (Hepatitis C virus genotype 1b, UniProt P26663, E2505Q/E2506Q/K2533R/L2466Q/R2963Q/S2701T).
T3 construct: 1b S282T; made in house; host or cells: E. coli Rosetta DE3
Put plainly: Inhibition assay (chain termination) with construct 1b S282T. Type of series: biochemical, hepatitis C virus genotype 1b BK isolate.

Series [4] concerns HCV polymerase 1b S282T. The series is described as above. To be noted: upon introduction of S282T into 1b WT. Type of series: biochemical, hepatitis C virus genotype 1b BK isolate.
For series [5], the target named is T4, HCV polymerase 1b Δ8 S282T (Hepatitis C virus genotype 1b, UniProt P26663, DEL2863-2870/E2505Q/E2506Q/K2533R/L2466Q/R2963Q/S2701T/S2872G/Y2871G).
T4 construct: 1bΔ8 S282T; made in house; host or cells: E. coli Rosetta DE3
The experiment in a line: Inhibition assay (chain termination) with construct 1b Δ8 S282T. Format: biochemical, hepatitis C virus genotype 1b BK isolate.

Series [6] deals with HCV polymerase 1b Δ8 S282T. The description is as above. Type of series: biochemical, hepatitis C virus genotype 1b BK isolate. To be noted: upon introduction of S282T into 1b Δ8.
Series [7] relates to genotype 1b (−) IRES RNA template. The experiment in a line: De novo RNA synthesis activity of HCV NS5B polymerase constructs. Format: biochemical, hepatitis C virus. To be noted: 2a Δ8 with Gly-Gly linker compared to wild-type 2a. As to the method:
HCV activity assays were performed in a 200 μL mixture containing 1 μM of the four natural ribonucleotides, [α-^32P]UTP, 20 ng/μL of genotype 1b (−) IRES RNA template, 1 unit/μL of SUPERase.In (Ambion, Austin, Tex.), 40 ng/μL of NS5B, 5 mM MgCl2, and 2 mM DTT in 50 mM HEPES buffer (pH 7.5). The reaction was incubated at 27° C. and 20 μL aliquots were taken at the desired time points and quenched by mixing in 80 μL of stop solution (12.5 mM EDTA, 2.25 M NaCl, and 225 mM sodium citrate).

A short description of series [8]: Thermofluor analysis: melting temperature of polymerase constructs. Format: physicochemical. Conditions: polymerase itself. The method, then: Thermofluor analysis of HCV polymerases 1bWT, 1bΔ8, 2aWT, and 2aΔ8 was performed as previously described (36, 37) in the absence and presence of symmetrical primer-template pairs or fused hairpin primer-template RNA as described in Example 2.

For series [9], the target named is T5, HCV NS5B polymerase 2a WT (Hepatitis C virus genotype 2a, UniProt Q99IB8, E2528Q/E2529Q).
T5 construct: 2a WT; made in house; host or cells: E. coli Rosetta DE3
The experiment in a line: Inhibition assay (chain termination) with construct 2a WT. Type of series: biochemical, hepatitis C virus genotype 2a JFH1 isolate. To be noted: 60 minutes incubation, 27° C. As to the method: (§1) For constructs 2aWT and 2aΔ8, inhibition assays were performed in a 20 μL mixture containing varying concentrations of PSI-352666 or 2′-C-MeGTP, 5 μM of the four natural ribonucleotides, [α-^32P]UTP, 20 ng/μL of genotype 1b (−) IRES RNA template, 1 unit/μL of SUPERase.In (Ambion, Austin, Tex.), 40 ng/μL of NS5B, 5 mM MgCl2, and 2 mM DTT in 50 mM HEPES buffer (pH 7.5).
(§2) The reaction was incubated at 27° C. and quenched by adding 80 μL of stop solution after 60 minutes incubation with 2aWT or 15 minutes incubation with 2aΔ8. The radioactive RNA products were separated from unreacted substrates using a Hybond N+ membrane (GE Healthcare) as described previously^28. The products were visualized and quantified using a phosphorimager. The reaction rates and the IC50 values were calculated using GraphFit (Erithacus Software, Horley, Surrey, UK).

Series [10] has as its target T6, HCV NS5B polymerase 2a Δ8 (Hepatitis C virus genotype 2a, UniProt Q99IB8, DEL2886-2893/E2528Q/E2529Q/S2895G/Y2894G).
T6 construct: 2aΔ8; made in house; host or cells: E. coli Rosetta DE3
The experiment in a line: Inhibition assay (chain termination) with construct 2a Δ8. Type of series: biochemical, hepatitis C virus genotype 2a JFH1 isolate. To be noted: 15 minutes incubation, 27° C. As to the method:
as §1, §2

In the case of `C[C@@]1(O)[C@H](O)[C@@H](COP(=O)(O)OP(=O)(O)OP(=O)(O)O)O[C@H]1n1cnc2c(=O)[nH]c(N)nc21` [2′-C-MeGTP], the concentration for half-maximal inhibition (IC50) in series [1] was 7 to 13 µM; in series [2] it was 7 to 13 µM; against HCV polymerase 1b S282T [3] it was > 100 µM; in [5] it was > 100 µM. Moreover, the “increase in IC50” value (with HCV polymerase 1b S282T [4]; in [6]) was > 10 fold in each case.
With “2a Δ8: 2a WT with the β-hairpin replaced by a Gly-Gly linker, SEQ ID NO:8”, the “de novo RNA synthesis activity compared to 2a WT” value in series [7] was > 100 fold. Besides, in series [8], the “melting temperature (Tm)” value was ~35 °C.
Turning to `C[C@@]1(F)[C@H](O)[C@@H](COP(=O)(O)OP(=O)(O)OP(=O)(O)O)O[C@H]1n1cnc2c(=O)[nH]c(N)nc21` [PSI-352666], the IC50 in series [9] was 6.05 ± 0.82 µM; in [10] it was 6 µM and 6.41 µM; in series [1], 4 µM; in series [2], 4 µM; at HCV polymerase 1b S282T [3], 9 to 14 µM; in series [5], 9 to 14 µM. The “chain termination: elongation of the terminated product (*GGCX)” value in [2] (in the presence of the next correct incoming nucleotide (ATP), 0-60 min) is “not further elongated”. Besides, the “increase in IC50” value (in the series with HCV polymerase 1b S282T [4]; in series [6]) was ~2.5 fold in each case.
As for “2a WT: HCV polymerase genotype 2a JFH-1 construct, SEQ ID NO:3, C-terminal 21 amino acids replaced by hexahistidine tag, E86Q and E87Q”, the “melting temperature (Tm)” value in series [8] was ~41 °C.
